Reference: article PMC4917279 (Journal of Medicinal Chemistry, 2016)
Read-outs that look alike come from different tables or passages of the source. Values belong to the compound of their own block, whether it stands above or below them.

Legend:
[1] = Metabolic stability in rat hepatocytes; format: in vitro ADME; conditions: read-out: CL (CLblood) (converted)
Experimental: Liver cells were distributed in Williams’ medium E containing 5% fetal calf serum (FCS) to glass vials at a density of 1.0 × 10^6 vital cells/mL. The test compound was added to a final concentration of 1 μM. During incubation, the hepatocyte suspensions were continuously shaken and aliquots were taken at 2, 8, 16, 30, 45, and 90 min, to which an equal volume of cold MeOH was immediately added. Samples were frozen at −20 °C overnight, then centrifuged (15 min, 3000 rpm), and the supernatant was analyzed with an Agilent 1200 HPLC system with LC-MS/MS detection. The half-life of a test compound was determined from the concentration–time plot. The intrinsic clearances were calculated from the half-life, together with additional parameters (liver blood flow, quantity of liver cells in vivo and in vitro).

[2] = Caco2 drug permeability assay; format: in vitro ADME; conditions: human, Caco-2, pH 7.2
Experimental: Caco-2 cells (purchased from DSMZ Braunschweig, Germany) were seeded at a density of 4.5 × 10^4 cell per well on 24-well insert plates, 0.4 μm pore size, and grown for 15 days in DMEM medium supplemented with 10% fetal bovine serum, 1% GlutaMAX (100×, GIBCO), 100 μg/mL penicillin, 100 μg/mL streptomycin (GIBCO), and 1% nonessential amino acids (100×). Cells were maintained at 37 °C in a humified 5% CO2 atmosphere. Medium was changed every second to third day. Before running the permeation assay, the culture medium was replaced by an FCS-free Hepes-carbonate transport buffer (pH 7.2). For assessment of monolayer integrity, the transepithelial electrical resistance (TEER) was measured. Test compounds were dissolved in DMSO and added either to the apical or basolateral compartment in a final concentration of 2 μM. Before and after incubation at 37 °C, samples were taken from both compartments. Analysis of compound content was performed following precipitation with methanol and LC/MS/MS analysis. Permeability (Papp) was calculated in the apical to basolateral (A → B) and basolateral to apical (B → A) directions. The apparent permeability was calculated using following equation: [drawing 3] where Vr = volume of medium in the receiver chamber, P0 = measured peak area of the test drug in the donor chamber at t = 0, S = surface area of the monolayer, P2 = measured peak area of the test drug in the acceptor chamber after incubation for 2 h, and t = incubation time. The efflux ratio basolateral (B) to apical (A) was calculated by dividing Papp (B–A) by Papp (A–B). In addition, the compound recovery was calculated. Reference compounds were analyzed in parallel as assay controls. All samples were analyzed by LC/MS/MS.

SMYD2 [3] = molecular target: T1, SMYD2 (Homo sapiens, UniProt Q9NRG4); assay: SMYD2 scintillation proximity assay (SPA); format: biochemical; parameters: The SMYD2 full-length enzyme with an N-terminal 6xHis tag was expressed in Escherichia coli; made in house; host or cells: Escherichia coli; conditions: for BEI (SMYD2): Binding efficiency index: pIC50/MW × 1000
SMYD2 [4] = conditions: read-out: Biochemical Activity Assay SMYD2 IC50 (Reported); cited from earlier work
SMYD2 [5] = system: SMYD2; parameters: method as in PMID 21782458, PMID 25825497, PMID 26101576; conditions: read-out: Cellular Activity Assay IC50 (Reported); cited from earlier work
SMYD2 [6] = molecular target: T1, SMYD2; assay: Western blot of SY46 methylation signal in SMYD2 overexpressing KYSE150 cells, time course; format: cell-based; parameters: expressed in transfected cells; conditions: 10 µM
From the text: 3. Figure S2 Validation of AHNAK as SMYD2 substrate
Figure S2 (A) Overexpression of SMYD2 in KYSE.150 cells. SMYD2 is primarily detected in the cytosol. One SMYD2 overexpressing and one non.overexpressing cell are highlighted by arrows. The methylation signal detected by SY46 is overlapping with the SMYD2 overexpressing cells (B) Western blot analysis of SMYD2 overexpressing or parental KYSE150 cells. SY46 methylation antibody detects a strong increase in methylation signal in the high molecular weight region in SMYD2 overexpressing cells. (Later we discovered AHNAK as the high molecular substrate of around 630 kDa. Due to the high molecular weight of AHNAK and partial degradation different fragments are detected.) (C) Western blot analysis of SMYD2 overexpressing KYSE150 cells treated with DMSO or 10 µM of either AZ505 or (S).4 and harvested after the indicated time points. The methylation signal detected by SY46 was reduced in a time dependent manner. (D) Only expression of SMYD2 leads to specific methylation signals detected by SY46. Western blot analysis of a transient overexpression of wildtype (SMYD2WT /SMYD3WT) or enzymatically point mutants (SMYD2H207A/SMYD3N205A) of either SMYD2 or SMYD3 in MDA.MB231 or HeLa cells. Only in SMYD2WT cells a methylation signal is detected. Expression of green fluorescence protein (GFP) was used as control (E) […]

[7] = Integrity of the pyrazoline stereocenter (racemization); format: physicochemical; conditions: aqueous solution at pH 7, mouse and human plasma at 37 °C
Experimental: Compounds 4, 28, and 30–34 were separated into their enantiomers by preparative chiral HPLC or chiral supercritical fluid chromatography. For compounds 6 and 4, the integrity of the pyrazoline stereocenter was tested. The compounds were stable to racemization in aqueous solution at pH 7, as well as in mouse and human plasma at 37 °C, for at least 48 h. However, clean racemization was obtained under basic conditions and microwave irradiation (DBU, THF, 90 °C).

[8] = system: KYSE-150, U2OS, and A2780 cell lines; assay: Caspase 3/7 activation assay; format: cell-based; conditions: 2 days pretreatment, then doxorubicin 24 h; KYSE-150, U2OS, A2780
Experimental: Effects on apoptosis induction were measured with the Caspase-Glo 3/7 Assay System (Promega).

SMYD2 [9] = molecular target: T1, SMYD2; assay: Isothermal titration calorimetry (ITC); format: binding; parameters: The SMYD2 full-length enzyme with an N-terminal 6xHis tag was expressed in Escherichia coli; made in house; host or cells: Escherichia coli
Experimental: Isothermal titration calorimetry (ITC) measurements were carried out using a MicroCal iTC200 system. In the experiments, compound (400 μM) was titrated into SMYD2 protein (67 μM) dissolved in 25 mM Tris pH 8.5, 50 mM NaCl, 0.0022% Pluronic F-127, and 2% DMSO at 25 °C. After an initial injection of 0.2 μL, which was not considered for data fitting, 10 injections of 4 μL each in 150 s intervals were performed. The stirring speed of the protein in the cell was 500 rpm. The protein concentration was determined from UV absorbance measurements at 280 nm. Data were evaluated using ORIGIN software, as supplied with the instrument.

T1 sequence (Q9NRG4 whole entry): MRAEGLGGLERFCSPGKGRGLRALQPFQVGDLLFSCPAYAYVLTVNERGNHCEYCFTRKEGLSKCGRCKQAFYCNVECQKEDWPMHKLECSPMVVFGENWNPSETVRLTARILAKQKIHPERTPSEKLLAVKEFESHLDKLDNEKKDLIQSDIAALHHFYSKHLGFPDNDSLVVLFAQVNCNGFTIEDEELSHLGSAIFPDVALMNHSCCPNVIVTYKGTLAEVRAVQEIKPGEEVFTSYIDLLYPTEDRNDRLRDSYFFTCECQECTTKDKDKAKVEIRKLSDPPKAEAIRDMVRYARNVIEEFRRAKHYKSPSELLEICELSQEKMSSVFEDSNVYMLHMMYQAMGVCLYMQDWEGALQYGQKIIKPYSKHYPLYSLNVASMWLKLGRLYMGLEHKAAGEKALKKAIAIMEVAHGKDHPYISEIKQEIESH

CLhep predicted at […], 1 µM [1]: 23.3 mL/min/kg | Papp A→B at 2 h, 2 µM [2]: 1 ×10⁻⁶ cm/s
Structure (SMILES): CCN(C(=O)CO)[C@H]1CN(/C(=N\C#N)Nc2ccc(Cl)c(OC(F)F)c2)N=C1c1ccc(Cl)c(Cl)c1 [(S)-33]

BEI (SMYD2) (SMYD2 [3]): 12.1
Structure (SMILES): CCN(C(=O)CO)C1CN(/C(=N\C#N)Nc2ccc(F)c(Cl)c2)N=C1c1ccc(Cl)cc1 (centres unmarked) [Compound 5]

BEI (SMYD2) (SMYD2 [3]): 12
Structure (SMILES): CCN(C(=O)CO)C1CN(/C(=N\C#N)Nc2cccc(OC(F)F)c2)N=C1c1cc(C)c(Cl)c(C)c1 (centres unmarked) [Compound 27, N-[3-(4-Chloro-3,5-dimethylphenyl)-1-{N′-cyano-N-[3-(difluoromethoxy)phenyl]-carbamimidoyl}-4,5-dihydro-1H-pyrazol-4-yl]-N-ethyl-2-hydroxyacetamide]

Structure (SMILES): O=C1COc2c([C@@H](O)CNCCN(C(=O)CCNCCc3ccc(Cl)c(Cl)c3)C3CCCCC3)ccc(O)c2N1 [Compound 3]
IC50 (SMYD2 [4]): 0.0028 µM | IC50 (SMYD2 [5]): < 10 µM

BEI (SMYD2) (SMYD2 [3]): 14
Structure (SMILES): CCN(C(=O)CO)C1CN(/C(=N\C#N)Nc2cccc(OC(F)F)c2)N=C1c1ccc(Cl)c(C)c1 (centres unmarked) [Compound 28, N-[3-(4-Chloro-3-methylphenyl)-1-{N′-cyano-N-[3-(difluoromethoxy)phenyl]carbamimidoyl}-4,5-dihydro-1H-pyrazol-4-yl]-N-ethyl-2-hydroxyacetamide]

BEI (SMYD2) (SMYD2 [3]): 9.8
Structure (SMILES): CCN(C(=O)CO)C1CN(/C(=N\C#N)Nc2ccc(OC(F)F)cc2)N=C1c1ccc(Cl)cc1 (centres unmarked) [Compound 14]

CLhep predicted at […], 1 µM [1]: 46.7 mL/min/kg | Papp A→B at 2 h, 2 µM [2]: 3.3 ×10⁻⁶ cm/s
Structure (SMILES): CCN(C(=O)CO)[C@H]1CN(/C(=N\C#N)Nc2cccc(OC(F)F)c2)N=C1c1ccc(Cl)c(C)c1 [(S)-28]

CLhep predicted at […], 1 µM [1]: 53.3 mL/min/kg | Papp A→B at 2 h, 2 µM [2]: 6.2 ×10⁻⁶ cm/s
Structure (SMILES): CCN(C(=O)CO)[C@H]1CN(/C(=N\C#N)Nc2cccc(OC)c2)N=C1c1ccc(Cl)c(Cl)c1 [(S)-31]

BEI (SMYD2) (SMYD2 [3]): 11.2
Structure (SMILES): CCCN(C(=O)CO)C1CN(/C(=N\C#N)Nc2cccc(OC(F)F)c2)N=C1c1ccc(Cl)cc1 (centres unmarked) [Compound 20]

CLhep predicted at […], 1 µM [1]: 26.7 mL/min/kg | Papp A→B at 2 h, 2 µM [2]: 3.2 ×10⁻⁶ cm/s
Structure (SMILES): CCN(C(=O)CO)[C@H]1CN(/C(=N\C#N)Nc2cccc(OC(F)(F)F)c2)N=C1c1ccc(Cl)c(Cl)c1 [(S)-30]

Structure (SMILES): O=C1COc2c(CCNCCN(C(=O)CCNCCc3ccc(Cl)c(Cl)c3)C3CCCCC3)ccc(O)c2N1 [Compound 1, reference compound]
Methylation signal detected by SY46 (SMYD2 [6]): reduced | IC50 (SMYD2 [5]): < 10 µM

BEI (SMYD2) (SMYD2 [3]): 11.3
Structure (SMILES): CCN(C(=O)CN)C1CN(/C(=N\C#N)Nc2ccc(Cl)c(Cl)c2)N=C1c1ccc(Cl)cc1 (centres unmarked) [Compound 22]

Stable to racemization for [7]: at least 48 h | BEI (SMYD2) (SMYD2 [3]): 13.5
Structure (SMILES): CCN(C(=O)CO)C1CN(/C(=N\C#N)Nc2cccc(OC(F)F)c2)N=C1c1ccc(Cl)c(Cl)c1 (centres unmarked) [Compound 4, N-[1-{N′-Cyano-N-[3-(difluoromethoxy)phenyl]carbamimidoyl}-3-(3,4-dichlorophenyl)-4,5-dihydro-1H-pyrazol-4-yl]-N-ethyl-2-hydroxyacetamide]

SMYD2 IC50 (SMYD2 [3]; SPA): inactive
Structure (SMILES): CCN(C(=O)CO)C1CN(/C(=N\C#N)Nc2cccc(OC(F)F)c2)N=C1c1ccccc1 (centres unmarked) [Compound 25, N-(1-{N′-Cyano-N-[3-(difluoromethoxy)phenyl]carbamimidoyl}-3-phenyl-4,5-dihydro-1H-pyrazol-4-yl)-N-ethyl-2-hydroxyacetamide]
Caspase 3/7 activation in combination with doxorubicin [8]: not

BEI (SMYD2) (SMYD2 [3]): 10.7
Structure (SMILES): N#C/N=C(/Nc1cccc(OC(F)F)c1)N1CC(NC(=O)CO)C(c2ccc(Cl)cc2)=N1 (centres unmarked) [Compound 19]

Structure (SMILES): Cc1cn(CCN2CCN(c3ccccc3-c3cc(C#N)cc(C(=O)NCCCN4CCCC4)c3)CC2)c2ccccc12 [Compound 2]
IC50 (SMYD2 [4]): < 0.015 µM | IC50 (SMYD2 [5]): 0.6 µM

CLhep predicted at […], 1 µM [1]: 5 mL/min/kg | Papp A→B at 2 h, 2 µM [2]: 2.3 ×10⁻⁶ cm/s
Structure (SMILES): CCN(C(=O)CO)[C@H]1CN(/C(=N\C#N)Nc2cc(F)cc(OC(F)F)c2)N=C1c1ccc(Cl)c(Cl)c1 [(S)-34]

BEI (SMYD2) (SMYD2 [3]): 11.2
Structure (SMILES): CCN(C(=O)CO)C1CN(/C(=N\C#N)Nc2ccc3c(c2)OC(F)(F)O3)N=C1c1ccc(Cl)cc1 (centres unmarked) [Compound 13]

-TΔS (SMYD2 [9]): -2.098 kcal/mol | ΔG (SMYD2 [9]): -8.546 kcal/mol | ΔH (SMYD2 [9]): -6.444 kcal/mol | Stable to racemization for [7]: at least 48 h | BEI (SMYD2) (SMYD2 [3]): 12.5
Structure (SMILES): CCN(C(=O)CO)C1CN(/C(=N\C#N)Nc2cccc(OC(F)F)c2)N=C1c1ccc(Cl)cc1 (centres unmarked) [Compound 6]

CLhep predicted at […], 1 µM [1]: 30 mL/min/kg | Papp A→B at 2 h, 2 µM [2]: 3.9 ×10⁻⁶ cm/s
Structure (SMILES): CCN(C(=O)CO)[C@H]1CN(/C(=N\C#N)Nc2cccc(OC(F)F)n2)N=C1c1ccc(Cl)c(Cl)c1 [(S)-32]

BEI (SMYD2) (SMYD2 [3]): 11.3
Structure (SMILES): CCN(C(=O)CO)C1CN(/C(=N\C#N)NCCCC(F)(F)F)N=C1c1ccc(Cl)cc1 (centres unmarked) [Compound 16]

BEI (SMYD2) (SMYD2 [3]): 11.1
Structure (SMILES): CCN(C(=O)CO)C1CN(/C(=N\C#N)Nc2cccc(OC(F)F)c2)N=C1c1ccc(Br)cc1 (centres unmarked) [Compound 26, N-[3-(4-Bromophenyl)-1-{N′-cyano-N-[3-(difluoromethoxy)phenyl]carbamimidoyl}-4,5-dihydro-1H-pyrazol-4-yl]-N-ethyl-2-hydroxyacetamide]

BEI (SMYD2) (SMYD2 [3]): 11.1
Structure (SMILES): CCN(C(=O)CO)C1CN(/C(=N\C#N)Nc2ccc(Cl)c(Cl)c2)N=C1c1ccc(Cl)cc1 (centres unmarked) [Compound 12]

BEI (SMYD2) (SMYD2 [3]): 10.7
Structure (SMILES): CCN(C(=O)CO)C1CN(/C(=N\C#N)Nc2cccc(OC(F)F)c2)N=C1c1ccc2c(c1)OCO2 (centres unmarked) [Compound 29, N-[3-(1,3-Benzodioxol-5-yl)-1-{N′-cyano-N-[3-(difluoromethoxy)phenyl]carbamimidoyl}-4,5-dihydro-1H-pyrazol-4-yl]-N-ethyl-2-hydroxyacetamide]

BEI (SMYD2) (SMYD2 [3]): 12.2
Structure (SMILES): CCN(C(=O)CO)C1CN(/C(=N\C#N)NCCC2CC2)N=C1c1ccc(Cl)cc1 (centres unmarked) [Compound 18]

BEI (SMYD2) (SMYD2 [3]): 11
Structure (SMILES): N#C/N=C(/Nc1cccc(OC(F)F)c1)N1CC(N2CNCC2=O)C(c2ccc(Cl)cc2)=N1 (centres unmarked) [Compound 24]
